In general, pIC50 refers to −log10 of the IC50, conventionally taken in molar units.

pIC50: −log10 of the molar value. “Also recorded” adds a separate entry of the source. Like-named read-outs stand apart in the source and are kept apart here.

The test system of data set [1] is MCF-7 cells. Put plainly: Western blot of signaling proteins, MCF-7. In kind it is cell-based, human. The protocol:
(§1) RIPA extracts of cells were prepared as described previously, in the presence of protease inhibitors and phosphatase inhibitors. Protein concentrations were determined by the micro-bicinchoninic acid (BCA) method, and 30 μg of protein was used for each lane of the SDS-polyacrylamide gel Western blot. Relative protein expression was estimated using GAPDH or β-actin as an internal standard.

The test system of the next data set is MDA-MB-231 cell line. Put plainly: Western blot of AMPK phosphorylation, MDA-MB-231. The data set is classed as cell-based, human. The conditions noted are these: 1.0 μM, 24 hours. The protocol: as §1
For orientation: In western blotting, separated proteins are transferred to a membrane and probed.

Data set [2] concerns MCF-7 cells. Put plainly: JC-1 mitochondrial membrane potential staining, MCF-7. The conditions noted are these: HBB 20 μM 4 hours, (±)-14,15-EET 1 μM. The data set is classed as cell-based, human. The protocol:
(§2) Cells were grown in chamber slides at 37° C. with 5% CO2 and treated with DMSO or HBB for 4 hours before JC-1 dye was added for the MCF-7 or MDA-MB-231 cell line. […] Images of red fluorescence (590 nm) and green fluorescence (530 nm) were acquired using an Olympus 1X70 microscope fitted with an Olympus DP70 digital camera (Olympus, Tokyo, Japan).

The next data set has as its system MDA-MB-231 cells. The data set is described as follows: JC-1 mitochondrial membrane potential staining, MDA-MB-231. In kind it is cell-based, human. The conditions noted are these: HBB 20 μM 4 hours, (±)-14,15-EET 1 μM. The protocol:
as §2

Data set [3] concerns MCF-7 cells. Put plainly: RPPA analysis of MCF-7 cells treated with (±)-14,15-EET. The data set is classed as cell-based, human. The conditions noted are these: 15 minutes. The source says:
It is proposed that HBB inhibition of ER+ tumor growth is due, in part, to direct inhibition of membrane associated non-mitochondrial CYP3A4, thereby suppressing Stat3 and mTOR signaling due to suppression of EET biosynthesis, resulting in AMPK activation (FIG. 6d, membrane diagram). […] In this model, EETs inhibit AMPK through unknown mechanisms. […] This model therefore proposes two sites of CYP3A4 activity, at cellular membranes and at mitochondria.

For another data set, the system named is MCF-7. The data set is described as follows: MTT cell proliferation assay, MCF-7. In kind it is cell-based. To be noted: Homo sapiens, MCF7. The protocol: Cells were grown at 37° C. in a 5% CO2 incubator. […] MTT was then added (5 mg/ml), and after 2 h of incubation, the plates were centrifuged. The supernatant was removed; DMSO was added, and the absorbance was read at 540 nm with a BioTek 96-well plate reader.

Data set [4] concerns MCF-7 cells. Put plainly: Measurement of OCR and ECAR (extracellular flux), MCF-7. The conditions noted are these: t-AUCB 2.5, 5 μM, metformin 2.5, 5 mM, HBB 20, 40 μM, rotenone 1 μM. In kind it is cell-based, human. The protocol:
Cells were maintained in growth medium consisting of 10% FBS at 37° C. with 5% CO2 and seeded at 100,000 cells per well in XF24-well cell culture microplates (Seahorse Bioscience, North Billirica, Mass.). Concentrated stocks of HBB were prepared in DMSO. HBB was diluted to 10× working concentration in XF assay medium (a non-buffered medium including 2 mM L-glutamine but no sodium bicarbonate (buffering agent), glucose, or sodium pyruvate). Assays were performed in the XF Extracellular Flux Analyzer (Seahorse Bioscience that measures uptake and excretion of metabolic end products in real time). Oxygen consumption rate (OCR) and extracellular acidification rate (ECAR) were measured using an XF Assay Kit. OCR is reported in pmoles/minute and ECAR in mpH/minute. Before analysis, the cells were switched from culture medium to XF assay medium. After baseline measurements, 75 μl of HBB prepared in assay medium was injected into each well to reach final working concentrations. After addition of HBB, OCR and ECAR were measured at 18-minute intervals. […] There were 6 replicates for the studies of the 3-18 and 4-14 cell lines.

The test system of data set [5] is MCF-7 cells. The data set is described as follows: Cellular ATP by luminescent assay. The data set is classed as cell-based, human. The conditions noted are these: 6 hours of treatment; metformin 5 mM. Here is the method:
Cells were seeded in 96-well tissue culture plate in 100 μL medium per well. After treatment with either vehicle or testing compound for an appropriate length of time, 50 μL mammalian cell lysis solution was added to each well and the plate was shaken for 5 minutes on an orbital shaker. To each well, 50 μL luminescent substrate and luciferase solution were then added. After incubation in the dark for 10 minutes, the luminescence measured. Cellular ATP levels were then calculated against a standard curve generated with ATP standards of known concentration.

In data set [6] the test system is MCF-7 cells. Put plainly: Cellular EET levels by LC-ESI/MS/MS. In kind it is cell-based, human. The conditions noted are these: metformin 5 mM, 6 hours. The protocol: Samples were submitted to liquid chromatography-electrospray ionization/multiple reaction monitoring/mass spectrometry (LC-ESI/MRM/MS) analysis in a Thermo Electron Quantum Discovery Max triple quadrupole mass spectrometer (Thermo Finnigan, San Jose, Calif.) coupled with an Agilent 1100 HPLC (Santa Clara, Calif.), using argon as the collision gas. Negative ion monitoring was performed at the following diagnostic product ions: 319 m/z→155 m/z for 8,9-EET; 319 m/z→179 m/z for 11,12-EET; 319 m/z→219 m/z for 14,15-EET; 339 m/z→163 m/z for 8,9-[13C20]EET; 339 m/z→233 m/z for 11,12-[13C20]EET; and 339 m/z→259 m/z for 14,15-[^13C20]EET. Base-line resolution of EET regioisomers was achieved on a Phenomenex Luna C18 (2) reverse phase capillary column (250×0.5 mm, 5-μm particles) using the following mobile phase combinations: isocratic 5% B for 5 min, gradient 5-70% B for 5 min, hold at 70% for 30 min and then 95% for 10 min; A: 0.01% acetic acid in water, B: 0.01% acetic acid in acetonitrile; […] flow rate. A standard curve was obtained by linear regression of the peak area ratio of authentic EET regioisomers against internal standards. The amount of EETs in samples was calculated according to the standard curve. The (±)-5,6-EET regioisomer was not measured because it undergoes rapid internal degradation. […]

Data set [7] has as its system cytochrome P450 reductase (CPR). The data set is described as follows: CPR-mediated reduction of cytochrome c. The conditions noted are these: 1 and 10 mM. The data set is classed as biochemical. Here is the method: In a quartz cuvette, reduction of cytochrome c reaction was initiated by addition of CPR (final concentration 0.2 mg/mL) to 1 mL potassium phosphate buffer (0.3 M, pH=8.3) containing cytochrome c ([…]) and NADPH 50 ([…]). Absorbance at 550 nm was monitored real time by a Cary 50 UV-Vis Spectrophotometer (Agilent, Santa Clara, Calif.).

Data set [8] concerns MCF-7 cells. Put plainly: Clonogenicity of MCF-7 cells. The data set is classed as cell-based, human. To be noted: 1 mM, 24 hours treatment, 2 weeks culture. Here is the method:
FIG. 9A. […] After 24 hours of culture, the medium was then removed followed by addition of CM to the plates (left panel). The plates were then cultured for 2 weeks and at the endpoint the cell colonies were stained with crystal violet and the colonies counted. […] FIG. 9B.

In another data set the target is T1, CYP2C8 (Homo sapiens, UniProt P10632).
T1 sequence (P10632 1-490): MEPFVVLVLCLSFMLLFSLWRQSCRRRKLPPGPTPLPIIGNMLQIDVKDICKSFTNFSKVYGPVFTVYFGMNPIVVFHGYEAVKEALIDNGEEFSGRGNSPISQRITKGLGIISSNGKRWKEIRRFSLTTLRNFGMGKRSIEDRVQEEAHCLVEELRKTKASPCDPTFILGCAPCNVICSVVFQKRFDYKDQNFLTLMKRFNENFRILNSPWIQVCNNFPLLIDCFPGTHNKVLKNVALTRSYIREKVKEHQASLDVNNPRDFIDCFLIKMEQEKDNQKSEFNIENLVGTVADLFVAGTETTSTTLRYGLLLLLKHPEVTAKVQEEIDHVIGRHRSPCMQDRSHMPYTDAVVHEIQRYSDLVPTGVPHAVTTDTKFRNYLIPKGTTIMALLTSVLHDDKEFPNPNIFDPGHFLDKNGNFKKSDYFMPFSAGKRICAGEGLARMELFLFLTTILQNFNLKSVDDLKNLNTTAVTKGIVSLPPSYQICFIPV
The data set is described as follows: Binding to CYP nanodiscs (CYP2C8).

Data set [9] concerns the target T2, CYP2J2 (Homo sapiens, UniProt P51589).
T2 sequence (P51589 1-502): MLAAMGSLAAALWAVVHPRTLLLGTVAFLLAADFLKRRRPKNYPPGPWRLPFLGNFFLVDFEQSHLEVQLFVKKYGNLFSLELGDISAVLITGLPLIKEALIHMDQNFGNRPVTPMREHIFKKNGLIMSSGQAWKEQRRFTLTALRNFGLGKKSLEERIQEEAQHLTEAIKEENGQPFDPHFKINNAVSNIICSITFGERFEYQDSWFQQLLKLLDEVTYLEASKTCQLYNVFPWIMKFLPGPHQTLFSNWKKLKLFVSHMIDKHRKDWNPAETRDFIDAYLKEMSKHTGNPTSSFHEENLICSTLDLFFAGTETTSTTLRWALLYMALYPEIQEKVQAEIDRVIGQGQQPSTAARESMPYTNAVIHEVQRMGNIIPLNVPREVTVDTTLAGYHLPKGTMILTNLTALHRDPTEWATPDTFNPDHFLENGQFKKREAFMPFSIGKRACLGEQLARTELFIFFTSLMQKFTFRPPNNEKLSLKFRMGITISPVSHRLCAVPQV
Put plainly: Binding to CYP nanodiscs (CYP2J2).

A further data set deals with MCF-7 xenograft. To be noted: 100-fold higher dosing than HBB (Ma et al.); cited from earlier work.
For data set [10], the target named is T2, CYP2J2. Put plainly: CYP2J2 epoxygenase activity. To be noted: 0.75, 1.5 or 3 mM.
[11] abbreviates: read-out: IC50, MCF-7 breast cancer cell line.

As for `CCCCCC1OC1C/C=C\C/C=C\C/C=C\CCCC(=O)O` (racemic) [(±)-14,15-EET, (±)-14,15-(5Z,8Z,11Z)-EET], the “AMPK phosphorylation (pAMPK)” value in the data set on MCF-7 cells [1] (1 μM, 24 hours, MCF-7) is recorded as “suppression of pAMPKc”. For the same molecule, the AMPK phosphorylation result in the data set on MDA-MB-231 cell line is given as “no effect on AMPK phosphorylation”. The “mitochondrial membrane potential (ΔΨm), JC-1” value in the data set on MCF-7 cells [2] is listed as “increased mitochondrial cross membrane potential”; with MDA-MB-231 cells it was “increased mitochondrial membrane potential”. Also, the “Stat3 phosphorylation on Y705 and S727” value in the data set on MCF-7 cells [3] is listed as “activated”. Also, in the data set on MCF-7 cells [3], the “total mTOR level” value was “increased”.
With `CCCCCCNC(=N)NC(=N)NCc1ncc[nH]1` [HIB, N1-hexyl-N5-[(1H-imidazol-2-yl)methyl]-biguanide], the figures for the pIC50 in the data set on MCF-7 (setting [11]) and with MCF-7 (read-out: IC50 MCF-7) were approximately 3.30 and 3.30, respectively.
For the molecule `CCCCCCNC(=N)NC(=N)NCc1ccncc1` [HPB, N1-hexyl-N5-(pyridin-4-ylmethyl) biguanide], the pIC50 in the data set on MCF-7 (setting [11]) and with MCF-7 (read-out: IC50 MCF-7) was 4.40 in each case.
`CCCCNC(=N)N=C(N)N` [buformin, reference compound]: in the data set on MCF-7 (read-out: IC50 MCF-7), the pIC50 is less than 2.00.
Consider `CN(C)C(=N)N=C(N)N` [metformin], for which the pIC50 with MCF-7 (read-out: IC50 MCF-7) is 2.30. In the data set with MCF-7 cells [4], the “extracellular acidification rate (ECAR)” value was “marginal”. In the data set on MCF-7 cells [4], the “oxygen consumption rate (OCR)” value is “marginal reduction of OCR”. Besides, the “total cellular ATP levels” value in the data set on MCF-7 cells [5] is “unchanged; also recorded: failed to deplete cellular ATP”. The “cellular EET levels” value with MCF-7 cells [6] is “reduced”. In addition, the CYP3A4 protein levels entry in the data set with MCF-7 cells [1] (1 mM, 48 hours) is listed as “did not affect; also recorded: did not change CYP3A4 protein levels”. Also, in the data set with MCF-7 cells [1] (HBB 20 μM, metformin 5 mM), the “onset of AMPK activation (phosphorylation)” value is given as “first detectable after 6 hours”. In addition, the figures for the “CPR-mediated reduction of cytochrome c” value in data set [7] and in data set [7] (listed as Metformin) were “not affected” and “failed to inhibit”, respectively. Besides, in the data set on MCF-7 cells [8], the clonogenicity entry is on record as “Inhibits Clonogenicity”. For the same molecule, the “binding to CYP2C8” value at CYP2C8 is recorded as “binds”. For the same molecule, on CYP2J2 [9], the “binding to CYP2J2” value is given as “binds”. Besides, in the data set with MCF-7 xenograft, the “activity on the MCF-7 xenograft” value is “little activity”. On CYP2J2 [10], the “inhibition of CYP2J2 epoxygenase activity” value was “not inhibited”.
As to `N=C(N)/N=C(\N)NCCc1ccccc1` [phenformin, reference compound], in the data set with MCF-7 (read-out: IC50 MCF-7), the negative-log IC50 (pIC50) is 2.15.
On to `C=C(C)[C@H]1Cc2c(ccc3c2O[C@@H]2COc4cc(OC)c(OC)cc4[C@@H]2C3=O)O1` [rotenone], for which, in the data set on MCF-7 cells [4], the “extracellular acidification rate (ECAR)” value was “Reduction of OCR and ECAR was highly significant”; the “oxygen consumption rate (OCR)” value was “Reduction of OCR and ECAR was highly significant”.

Source of the values: US20180177749A1, “USE OF CYP EXPRESSION TO DIRECT THERAPEUTIC INTERVENTION IN CANCER” (REGENTS OF THE UNIVERSITY OF MINNESOTA, priority 2016, published 2018).
